Consider 11 molecules from ChEMBL document CHEMBL1201862, “PubChem BioAssay data set” (2004).

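How tested: cells in 96-well plates exposed to compound for 48 hours at five concentrations. GI50: concentration for 50% inhibition of growth.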 Active and inactive are the calls of the source. No stated cut-off is given here; in the data, active = GI50 up to about 1.1 µM and inactive = higher.

Holding throughout (test): inhibition of tumour cell growth, NCI panel, 48 h
Assay [1] concerns NCI-H23.
For assay [2], the system named is SF-268.
Assay [3] relates to NCI-H460.
The test system of assay [4] is LOX IMVI.
The test system of assay [5] is UACC-62.
In assay [6] the test system is MDA-N.
Assay [7] deals with SW-620.
Assay [8] relates to A498.
For assay [9], the system named is MDA-MB-231.
Assay [10] has as its system SK-MEL-5.
The test system of assay [11] is OVCAR-3.
Assay [12] has as its system NCI/ADR-RES.
Assay [13] concerns SN12C.
The test system of assay [14] is MDA-MB-435.
The test system of assay [15] is CAKI-1.
Assay [16] has as its system ACHN.
The subject of assay [17] is SR.
In assay [18] the test system is NCI-H226.
Assay [19] has as its system HCC 2998.
The test system of assay [20] is Malme-3M.

On to `Nc1ccc(S(=O)(=O)NCc2nccs2)cc1`, for which the GI50 in assay [1] is 22.4 µM (inactive); in assay [2], 18.6 µM (inactive); in assay [3], 26.5 µM (inactive); in [4], 19.9 µM (inactive); in [5], 17.5 µM (inactive); in [6], 22.3 µM (inactive). In addition, the GI50 in assay [7] was 30.5 µM (inactive); in [8], 17.7 µM (inactive); in [9], 24.9 µM (inactive); in [10], 15.8 µM (inactive); in assay [11], 34 µM (inactive); in [12], 23.8 µM (inactive). Besides, the GI50 was 19.2 µM (inactive) in assay [13]; 19.6 µM (inactive) in assay [14]; 28.4 µM (inactive) in [15]; 23.4 µM (inactive) in assay [16]; 31 µM (inactive) in assay [17]; 22.2 µM (inactive) in assay [18].
For `COC(=O)c1c(CC(Cc2ccc3c(c2)CCCC3)C(=O)OC)ccc2c1CCCC2` (centres undefined), the GI50 was 69.5 µM (inactive) in assay [1]; 55.3 µM (inactive) in assay [2]; 88.5 µM (inactive) in [3]; 43 µM (inactive) in assay [4]; > 100 µM (inactive) in assay [5]; 77.1 µM (inactive) in assay [6]. Moreover, the GI50 in [7] was > 100 µM (inactive); in assay [19], 23.1 µM (inactive); in assay [8] it was > 100 µM (inactive); in [9] it was > 100 µM (inactive); in assay [10], 29.4 µM (inactive); in assay [11], > 100 µM (inactive). Besides, the GI50 in assay [12] is > 100 µM (inactive); in assay [13], > 100 µM (inactive); in [14], 42.4 µM (inactive); in assay [20] it was 38 µM (inactive); in assay [15], > 100 µM (inactive); in assay [16], 45.1 µM (inactive). Moreover, the GI50 in assay [17] is 34.7 µM (inactive).
Consider `Nc1ccn([C@H]2CO[C@@H](CO)[C@@H]2O)c(=O)n1`, for which the GI50 in [1], in assay [2], in assay [3], in assay [4], in assay [5] and in assay [6] was > 100 µM (inactive) each time. For the same molecule, the GI50 in assay [7], in assay [19], in assay [8], in [9], in assay [10] and in assay [11] was > 100 µM (inactive) each time. The GI50 in [12], in [13], in [14], in [15], in [16] and in assay [17] was > 100 µM (inactive) in each case. Also, in [18], the GI50 is > 100 µM (inactive).
`O=C(O)c1nc2ccccc2nc1NCc1ccc(F)cc1`: the GI50 in assay [1] is 54 µM (inactive); in [2], 57 µM (inactive); in assay [3] it was 60.7 µM (inactive); in assay [4], 36.8 µM (inactive); in [5], > 100 µM (inactive); in assay [6], > 100 µM (inactive). Further, the GI50 was 63.8 µM (inactive) in assay [7]; 99.1 µM (inactive) in assay [19]; > 100 µM (inactive) in assay [8]; 68.7 µM (inactive) in assay [9]; 35.8 µM (inactive) in assay [10]; 42.2 µM (inactive) in [11]. The GI50 in [12] is 30.2 µM (inactive); in [13] it was > 100 µM (inactive); in assay [14], > 100 µM (inactive); in [15], 62.4 µM (inactive); in assay [17] it was 42.4 µM (inactive); in assay [18] it was 51.6 µM (inactive).
On to `C/C=C/C=C/c1nc(C#N)c(N)o1`, for which the GI50 in assay [1], in assay [2], in assay [4], in assay [5], in [6] and in [7] was > 100 µM (inactive) in each case. Also, the GI50 in assay [19], in [9], in assay [11], in assay [12], in [13] and in [14] was > 100 µM (inactive) throughout. In addition, the GI50 in [20], in assay [15], in assay [16], in assay [17] and in [18] was > 100 µM (inactive) each time.
`[O-][S@@+]1c2ccc3ccccc3c2N[C@@H]2[C@H]1[C@H]1C=C[C@@H]2C1`: the GI50 was 35.3 µM (inactive) in assay [1]; 61 µM (inactive) in [2]; 37.6 µM (inactive) in assay [3]; 31.6 µM (inactive) in assay [4]; 84.1 µM (inactive) in assay [5]; 20.8 µM (inactive) in assay [6]. In addition, the GI50 in assay [7] is 34 µM (inactive); in assay [8], 71.6 µM (inactive); in assay [9], 32.3 µM (inactive); in assay [10] it was 28 µM (inactive); in assay [11] it was 11.9 µM (inactive); in assay [12] it was 25.8 µM (inactive). For the same molecule, the GI50 in assay [13] was 53.7 µM (inactive); in assay [14], 24.9 µM (inactive); in assay [20], 58.9 µM (inactive); in assay [15], > 100 µM (inactive); in [16], > 100 µM (inactive); in assay [17] it was 30 µM (inactive). For the same molecule, in assay [18], the GI50 was 50.8 µM (inactive).
Regarding `CNC(=S)N(C1CCCCC1)C1CCCCC1`, the GI50 in [1] was 82.8 µM (inactive); in assay [2] it was > 100 µM (inactive); in assay [3], 50.9 µM (inactive); in assay [4], > 100 µM (inactive); in [5], > 100 µM (inactive); in [6], > 100 µM (inactive). Moreover, the GI50 in assay [7] is > 100 µM (inactive); in assay [19] it was > 100 µM (inactive); in assay [9] it was > 100 µM (inactive); in assay [10] it was 49 µM (inactive); in assay [11] it was > 100 µM (inactive); in [12] it was > 100 µM (inactive). In addition, the GI50 is > 100 µM (inactive) in assay [13]; > 100 µM (inactive) in assay [14]; 47 µM (inactive) in assay [20]; 70.6 µM (inactive) in assay [15]; 98.4 µM (inactive) in [16]; 42.4 µM (inactive) in assay [17]. Moreover, in assay [18], the GI50 is > 100 µM (inactive).
As to `CCOC(=O)C(=O)C(=O)NN(C)C1=NCCN1`, the GI50 in assay [1], in assay [2], in assay [3], in [4], in [5] and in [6] was > 100 µM (inactive) each time. The GI50 in assay [7], in assay [19], in assay [9], in assay [10], in [11] and in [12] was > 100 µM (inactive) each time. Moreover, the GI50 in assay [13], in assay [14], in [20], in assay [16], in assay [17] and in assay [18] was > 100 µM (inactive) throughout.
In the case of `Nn1c(Cc2ccc([N+](=O)[O-])cc2)n[nH]c1=O`, the GI50 in assay [1], in [2], in [3], in [4], in assay [5] and in [6] was > 100 µM (inactive) in each case. Also, the GI50 in assay [7], in assay [19], in [9], in assay [10], in assay [11] and in assay [12] was > 100 µM (inactive) in each case. For the same molecule, the GI50 in assay [13], in [14], in [20], in [15], in [16] and in assay [17] was > 100 µM (inactive) each time. Besides, in assay [18], the GI50 is > 100 µM (inactive).
On to `CC1(O)C(=O)OC2CC([C@]3(O)CCC4[C@@H]5C[C@H]6O[C@]67[C@@H](O)C=CC(=O)[C@]7(C)C5CC[C@@]43C)C1(C)C2` (some centres undefined), for which the GI50 was 7.13 µM (inactive) in assay [1]; 16 µM (inactive) in [2]; 30.5 µM (inactive) in assay [3]; 4.54 µM (inactive) in assay [4]; 14.9 µM (inactive) in assay [5]; 12.3 µM (inactive) in assay [6]. Further, the GI50 in assay [7] was 3.07 µM (inactive); in assay [19], 42 µM (inactive); in assay [8], 31.3 µM (inactive); in [9] it was 16.7 µM (inactive); in assay [10], 16.9 µM (inactive); in assay [11] it was 15.8 µM (inactive). For the same molecule, the GI50 in [12] was > 50.9 µM (inactive); in assay [13] it was 16.5 µM (inactive); in [14], 15.7 µM (inactive); in assay [20] it was 3.76 µM (inactive); in assay [15] it was 11.8 µM (inactive); in [16], 18.8 µM (inactive). Further, the GI50 in [17] was 2.69 µM (inactive).
Turning to `O=Nc1c(-c2c(O)[nH]c3ccccc23)[nH]c2ccccc12` [INDIRUBIN-3-MONOXIME], the GI50 was 7.83 µM (inactive) in assay [1]; 5.5 µM (inactive) in [2]; 3.53 µM (inactive) in assay [3]; 3.86 µM (inactive) in [4]; 2.93 µM (inactive) in assay [5]; 4.58 µM (inactive) in assay [6]. Besides, the GI50 was 4.79 µM (inactive) in assay [7]; 4.27 µM (inactive) in assay [19]; 2.29 µM (inactive) in [8]; 3.38 µM (inactive) in [9]; 3.99 µM (inactive) in [10]; 3.88 µM (inactive) in assay [11]. Besides, the GI50 is 5.77 µM (inactive) in [12]; 2.98 µM (inactive) in assay [13]; 3.79 µM (inactive) in assay [14]; 3.89 µM (inactive) in assay [20]; 0.64 µM (active) in assay [15]; 1.94 µM (inactive) in assay [16]. For the same molecule, the GI50 in [17] is 4.85 µM (inactive).
